Data taken from US20230219886A1, “NOVEL SELENO-NSAID ANALOGS AND USES THEREOF” (THE PENN STATE RESEARCH FOUNDATION, priority 2020, published 2023).

Columns and labels:
[1] = system: Cyclin E1; assay: Western blot protein expression, Cyclin E1; type: cell-based, human; conditions: HT-29, IC50 dose, 12 h and 24 h
Method: Protein Expression Analysis. Western Blot was performed to assess the expression level of different proteins before and after treatment. In brief, HT-29 cells were treated with the compound for different time intervals and the whole-cell lysates were made by lysing cells using RIPA buffer (Thermo Scientific, USA). Protease (Roche, USA) and phosphatase inhibitor cocktails (Sigma-Aldrich, USA) were used to prevent the degradation of the proteins present in the lysate. The resulting lysates were incubated on ice for 30 min and spun at 10,000 rpm for 15 min to pellet down cell debris. The total protein concentration was determined using Bradford assay (Thermo Scientific, USA). Equal amounts of cell lysates were resolved using NuPAGE gel 4-12% (Life Technologies, Carlsbad, Calif.). The resolved proteins were electro-transferred to a PVDF membrane and different antibodies were used to probe the protein expression levels. Enhanced Chemiluminescent reagent (Life technologies, USA) was used to detect the protein of interest.
To further explore the underlying mechanism of the cell cycle arrest, we studied the expression levels of the different proteins involved in the cell cycle regulation. […] At both time intervals of 12 h and 24 h, the expression levels of cell cycle regulatory proteins cyclin E1 and cyclin B1 were inhibited while p21 was induced (FIG. 7B).

[2] = system: DU-145 (prostate carcinoma); assay: MTT cell viability assay, DU-145; conditions: for cell viability: 48 h
Method: (§1) Cell Culture Conditions. The cell lines were obtained from the American Type Culture Collection (ATCC). PANC-1 and Caco-2 cell lines were maintained in DMEM medium (Gibco); HT-29, HCT-116 and RKO cells were maintained in McCoy's 5A medium (Gibco); and DU-145 and H1299 cells were maintained in RPMI 1640 medium (Gibco), supplemented with 10% fetal bovine serum (FBS; Gibco) and 1% antibiotics (10.00 units/mL penicillin and 10.00 mg/mL streptomycin; Gibco). Cells were preserved in tissue culture flasks at 37° C. and 5% CO2. Culture medium was replaced every three days.
(§2) Cell Viability Assay. The effect of each compound on cell viability was tested using the MTT assay (81). Briefly, 9000 cells/well were grown in 96-well plates for 12 h. Then these cells were incubated with either DMSO (control) or nine different concentration between 0.01-50 μM of the test compounds for 24, 48, and 72 h. Three hours before the termination point, 20 μL of MTT were added to measure cellular viability. The resultant formazan crystals were dissolved in 50 μL of DMSO, and absorbance was measured at 570 nm and 630 nm wavelengths. IC50, GI50, TGI and LC50 values were calculated using OriginPro 8.5.1.
(§3) Evaluation of the antiproliferative activities of the novel molecules. […] These four cell lines were treated with each compound at three concentrations (5, 25 and 50 μM) for 48 h.

[3] = system: HT-29 cells; assay: Cell cycle analysis by flow cytometry; type: cell-based, human; conditions: HT-29, 24 h; for population of cells in the S-phase: compared with vehicle; for population of cells in G1 and G2/M phases: compared with vehicle (DMSO)
Method: Cell Cycle Analysis. Cell cycle analyses were determined by following a flow cytometry protocol as described earlier (82). In brief, HT-29 cells were serum deprived for 72 hours to get them synchronized. At the end of 72 hours, cells were supplied with fresh medium or fresh medium with 1, 2.5, 5 and 10 μM of 1a and 6a for 24 hours. After each time point, the cells were fixed in ice cold 70% ethanol. Fixed cells were washed with 1×PBS and suspended in PI staining solution. PI staining solution was made by adding 0.1% (v/v) triton X-100, 20 mg of DNase-free RNase A, and 2 mg of PI in 100 mL of PBS. After staining for 15 min, the cells were analyzed by flow cytometer (Coulter Epics XL, Beckman Coulter).
Compounds 1a and 6a inhibited CRC cell growth by inducing cell cycle arrest. We investigated the effect 1a and 6a on the cell cycle by flow cytometry.

[4] = system: HT-29 (CRC cells); assay: NCI-60 one-dose screen, HT-29; type: cell-based, human; conditions: HT-29, 10 μM, 48 h
From the text: (§4) NCI-60 Analysis. 1a and 6a were submitted to National Cancer Institute's (NCI) Developmental Therapeutics Program (DTP) where the cytotoxicity profile was investigated across their 60 human cancer cell line panel according to the protocol available on multiple sources (71-73, 83). The COMPARE algorithm (73), was utilized to evaluate the activity profile of 6a in comparison to those of known cytotoxins established in marketed drugs and standard agent data sets in order to correlate plausible modes of action.
(§5) NCI-60 analysis. Compounds 1a, 5a and 6a were submitted to the National Cancer Institute's (NCI) Developmental Therapeutics Program (DTP). NCI-60 program consists in a panel of 60 human cancer cell lines from a variety of cancers, including refractory tumors such as lung, ovarian, CRC, breast, brain and renal cancers, and melanomas together with more treatable cancers such as leukemias (71). 1a [NSC: 803071], 5a [NSC: 820332] and 6a [NSC: 811013] were initially screened at one dose (10 μM) at 48 h. Then, NCI selected only compound 6a to perform dose-response characterization (72).

[5] = system: H1299 (lung carcinoma); assay: MTT cell viability assay, H1299; conditions: for cell viability: 48 h
Method: as §1, §2, §3

[6] = system: RE: A498; assay: NCI-60 dose-response, A498; type: cell-based, human; conditions: A498, 48 h
From the text: as §4, §5

[7] = system: LC: EKVX; assay: NCI-60 dose-response, EKVX; type: cell-based, human; conditions: 48 h
From the text: as §4, §5

[8] = system: ME: LOX IMVI; assay: NCI-60 dose-response, LOX IMVI; type: cell-based, human; conditions: 48 h
From the text: as §4, §5

[9] = system: CNS: SF-295; assay: NCI-60 dose-response, SF-295; type: cell-based, human; conditions: SF-295, 48 h
From the text: as §4, §5

[10] = Homo sapiens, DU-145, 48 h, read-out: cell viability
[11] = Homo sapiens, NCI-H1299, 48 h, read-out: cell viability
[12] = read-out: LC50 (the source's name)

## C[Se]C(=O)c1ccccc1OC(C)=O [Compound 1a, 2-((methylselanyl)carbonyl)phenyl acetate]
[1]
  expression level of Cyclin E1: went down substantially
[2]; [10]
  viability at 5 µM: 43.2 ± 1.8%
  viability at 25 µM: 35.9 ± 7%
  viability at 50 µM: 36.5 ± 6.7%
[3]
  population of cells in the S-phase: drastically reduced
  population of cells in G1 and G2/M phases: increase
[4]
  Growth percent (GP): < 12%
[5]; [11]
  viability at 5 µM: 48.7 ± 5%
  viability at 25 µM: 41.6 ± 7.2%
  viability at 50 µM: 31.4 ± 7.7%

## C[Se]C(=O)CC1=C(C)/C(=C/c2ccc([S+](C)[O-])cc2)c2ccc(F)cc21 (stereo not shown) [Compound 6a, Se-methyl (Z)-2-(5-fluoro-2-methyl-1-(4-(methylsulfinyl)benzylidene)-1H-indenyl)ethaneselenoate]
[6]
  GI50: 38.8 nM
  TGI: 184 nM
[6]; [12]
  CC50: 658 nM
[1]
  expression level of Cyclin E1: went down substantially
[7]
  GI50: < 10 nM
  TGI: 10.8 nM
[7]; [12]
  CC50: 861 nM
[8]
  GI50: 14.1 nM
  LC50 (concentration giving 50% net cell kill): 62.1 nM
  TGI: 29.6 nM
[2]; DU145, 5 μM
  cell viability: 60.1 ± 2.2%
[2]; DU145, 25 μM
  cell viability: 44.9 ± 2.4%
[2]; DU145, 50 μM
  cell viability: 52.5 ± 2.9%
[3]
  population of cells in the S-phase: drastically reduced
  population of cells in G1 and G2/M phases: increase
[9]
  GI50: 24.2 nM
  LC50: 386 nM
  TGI: 107 nM
[5]; H1299, 5 μM
  cell viability: 53.4 ± 20.2%
[5]; H1299, 25 μM
  cell viability: 41.9 ± 14.9%
[5]; H1299, 50 μM
  cell viability: 31.3 ± 6.4%
